The subject of test [1] is NCI-H446 cells. Put plainly: Phase contrast microscopy of SDF-1α induced adhesion/morphology with LY294002. It counts as cell-based, human. Conditions: SDF-1α 100 ng/ml, 24 hour time point. The protocol:
(§1) Phase-contrast photomicrographs were taken at various time points (0, 1, 2, 4, 8, and 24 hours). For LY294002 studies, starved NCI-H446 cells (1×10^6) were resuspended in serum free media and placed onto a 35 mm tissue culture dish (Becton Dickinson Labware).
Phase-contrast microscopy pictures were taken at the 24 hour time point. Most of the untreated cells kept their rounded shape and formed clusters, and nearly half of them attached weakly to the bottom of the dish.

Test [2] has as its system NCI-H69 cells. Put plainly: Phase contrast microscopy of morphological changes with SDF-1α, SCF and STI571. The format is cell-based, human. Conditions: for morphological change of NCI-H69 cells in response to ligand: 100 ng/ml, pictures after 8 hours. The procedure:
as §1
It has not been shown previously that there is a functional interaction between CXCR4 and c-Kit in SCLC. […] Phase-contrast microscopy pictures were then taken after 8 hours. Morphological changes began to be apparent at 4 hours, and the changes plateaued between 8 and 24 hours. […] Inhibition of the active c-Kit receptor by STI571 may lead to the inhibition of other active receptors such as CXCR4.

Test [3] deals with Akt and p70 S6 kinase. Nature of the test: Immunoblotting of Akt and p70 S6 kinase phosphorylation. It counts as cell-based, human. Conditions: for time to phosphorylation of Akt (Ser 473) and p70 S6 kinase (Thr 389): 50 ng/ml, serum starved NCI-H69 cells. The protocol:
(§2) Cells were lysed in lysis buffer (20 mM Tris pH 8.0, 150 mM NaCl, 10% glycerol, 1% NP-40, 0.42% NaF) containing protease inhibitors (1 mM PMSF, 1 mM Na3VO4, 5 μg/ml aprotinin, 5 μg/ml leupeptin). Cell lysates were separated by 7.5% SDS-PAGE under reducing conditions and transferred to nitrocellulose membranes (Schleicher & Schuell, Dassel, Germany). Proteins were detected by immunoblotting using an enhanced chemiluminescence technique (NEN Life Science Products, Mass.). Rabbit polyclonal antibodies against c-Kit (C-19; Santa Cruz Biotechnology, Inc., Santa Cruz, Calif.), Akt, Akt (pSer 473), Akt (pThr 308), p70 S6 kinase, and p70 S6 kinase (pThr 389) (Cell Signaling Technology, Inc., Beverly, Mass.) and monoclonal antibodies against […]-actin (AC-15; Sigma, St. Louis, Mo.) and phosphotyrosine (4G10, UBI, Lake Placid, N.Y.) were used.
(§3) The activity of the PI3-K downstream targets Akt and p70 S6 kinase is regulated through critical serine/threonine (Ser/The) residues (Franke, T. F. et al. (1997) Cell 88:435-7; Pullen, N. and Thomas, G. (1997) FEBS Lett 410:78-82). […] Cell lysates were applied to a 7.5% SDS-PAGE gel and transferred to nitrocellulose membrane. The membrane was probed with monoclonal antibodies against phosphotyrosine (4G10) and β-actin and polyclonal antibodies against Akt (pSer 473) and p70 S6 kinase (S6K) (pThr 389). […] On the other hand, maximal tyrosine phosphorylation of proteins at 60-90 kDa and 110-145 kDa occurred within 2.5-7.5 minutes in response to SCF.
Lysates were processed as described above in Example 6, and the membrane was probed with the phospho-specific or regular antibodies against Akt and p70 S6 kinase, as well as with an anti-c-Kit antibody. […] The expression levels of Akt, p70 S6 kinase, and c-Kit were not affected by any of these treatments.
For orientation: A western blot detects proteins with antibodies after separation by electrophoresis.

Test [4] concerns the target human c-Kit (human). Nature of the test: cell-based or functional assay.
The test system of test [5] is tyrosine phosphorylation of cellular proteins in NCI-H69 cells. Nature of the test: Immunoblotting of tyrosine phosphorylation of cellular proteins (4G10). The format is cell-based, human. The procedure: as §2, §3
Test [6] concerns NCI-H69 cells. Nature of the test: Cell viability assay (trypan blue dye exclusion). It counts as cell-based, human. Conditions: 100 ng/ml; for increase in viable cell number: 10% FCS, 72 hours; for effect on cell survival: without serum. The protocol:
Ten small cell lung cancer (SCLC) cell lines (NCI-H69, NCI-H82, NCI-H128, NCI-H146, NCI-H209, NCI-H249, NCI-H345, NCI-H446, NCI-H510, and NCI-H526) were purchased from the American Type Culture Collection (Rockville, Md.) and maintained in RPMI 1640 medium (Cellgro) supplemented with 10% (v/v) fetal calf serum (FCS). MO7e cells were maintained as described in Sattler, M. et al. (1997) J. Biol. Chem. 272:10248-53. All cell lines were incubated at 37° C. in a 5% CO2 humidified atmosphere and harvested during log phase growth. Cells were deprived of growth factors by incubation in RPMI 1640 medium containing 0.5% (w/v) bovine serum albumin (BSA) (Sigma, St. Louis, Mo.) for 18 hours. In some experiments, cells were treated with 5 μM STI571 (Gleevec™, Novartis Pharmaceuticals, Basel, Switzerland) or 25 μM LY294002 (Sigma).
Viable cells were counted by trypan blue dye exclusion test every 24 hours up to 72 hours. Data was plotted as the mean±SD from three independent experiments. Student's t test was used for the statistical analysis of viable cell number under individual conditions. Differences were considered statistically significant at p<0.05.

As for `O=c1cc(N2CCOCC2)oc2c(-c3ccccc3)cccc12` [LY294002, reference compound], the “cells floating with rounded shapes in spite of SDF-1α treatment” value in test [1] (LY294002 25 μM) is recorded as “more than 90%”.
`Cc1ccc(NC(=O)c2ccc(CN3CCN(C)CC3)cc2)cc1Nc1nccc(-c2cccnc2)n1` [STI571]: in test [2] (STI571 5 μM), the “inhibition of the morphological changes” value is given as “only in the presence of SCF”. In addition, the “neurite like projections induced by SDF-1α alone in the presence of STI571” value in test [2] (STI571 5 μM, SDF-1α 100 ng/ml) was “still formed”. In addition, the “neurite like structures in STI571 treated cells stimulated with both SDF-1α and SCF” value in test [2] (STI571 5 μM, SDF-1α 100 ng/ml and SCF 100 ng/ml) is “could not form any neurite like structures”. Further, the “effect of pre-treatment on SCF induced phosphorylation of Akt and p70 S6 kinase” value in test [3] (STI571 5 μM or LY294002 25 μM overnight, then 50 ng/ml SCF 15 minutes, NCI-H69 cells) is listed as “inhibited”.
In the case of “Recombinant human SCF (stem cell factor) (from UniProt P21583 26-189) (ligand)”, in test [4], the cell proliferation of NCI-H69 cells (viable cell count, trypan blue), 10% FCS, 100 ng/ml SCF, 48 hours, increase compared with untreated control came out at 21.5%; the concentration for optimal phosphorylation of cellular proteins in NCI-H69 cells (immunoblot, dose-response) is 10 ng/mL; the time to phosphorylation of Akt (Ser 473) and p70 S6 kinase (Thr 389) in NCI-H69 cells, 50 ng/ml SCF was below 2.5 min.
With “SCF: Recombinant human stem cell factor, natural ligand of c-Kit”, the “concentration giving optimal phosphorylation of cellular proteins (dose-response studies)” value in test [5] (NCI-H69 cells) is at least 10 ng/mL. Moreover, the “time of maximal tyrosine phosphorylation of proteins at 60-90 kDa and 110-145 kDa” value in test [5] (SCF 50 ng/ml, serum starved NCI-H69 cells) is 2.5-7.5 minutes. Besides, in test [6], the “increase in viable cell number” value came to 16.5% and the “effect on cell survival” value was “neither SCF nor SDF-1α showed any effect”. In test [6] (media containing 10% FCS, 48 hours), the “cell proliferation induced, as compared with untreated control” value came to 21.5%. Moreover, the “morphological change of NCI-H69 cells in response to ligand” value in test [2] was “Neurite like actin formations were observed”. The “time to phosphorylation of Akt (Ser 473) and p70 S6 kinase (Thr 389)” value in test [3] was at most 2.5 min.
“SDF-1α: Recombinant human SDF-1α, natural ligand for CXCR4, member of the CXC chemokine family”: in test [5] (SDF-1α 50 ng/ml, serum starved NCI-H69 cells), the “time to tyrosine phosphorylated bands between 70-120 kDa” value is at most 15 min. In addition, the “adhesion and morphology of cells with SDF-1α” value in test [1] is “almost all cells tightly adhered to the bottom of the dish and neurite like projections were induced in many cells”. Besides, in test [6], the “increase in viable cell number” value came to 15.5% and the “effect on cell survival” value was “neither SCF nor SDF-1α showed any effect”. Moreover, the “morphological change of NCI-H69 cells in response to ligand” value in test [2] is “more apparent as projections”. The “time to phosphorylation of Akt (Ser 473) and p70 S6 kinase (Thr 389)” value in test [3] was at most 5 min.
